How the values were obtained:
[1] = tested on: strain FPR3757 (a USA300 strain); test: Checkerboard assay; format: cell-based, Staphylococcus aureus; details: 24-h incubation
Procedure: Synergy with β-Lactams and Time-Kill Assays. […] In this assay, the antibiotics are compared individually and in combination. The fractional inhibitory concentration (FIC) index is calculated. Synergy is defined as an FIC value ≤0.5, indifference as FIC >0.5 to ≤4, and antagonism as FIC >4.
Checkerboard assay. […] The final inoculum in each well was 5×10^5 CFU·mL^−1, and the result was read after 24-h incubation at 37° C. The fractional inhibitory concentration (FIC) index was calculated for each combination. An FIC index of ≤0.5 is considered synergistic. The experiment was done in triplicates.

XTT cytotoxicity assay = format: cell-based; details: human, hepg2 cells; HepG2; at 64 mg·L^−1; read-out: Cell viability
Procedure: (§1) We evaluated additionally the in vitro cytotoxicity of compound 4 using the XTT assay with HepG2 (liver) cells. Cell viability was 100% at 64 mg·L^−1.
(§2) XTT assay. Compound 4 was evaluated in triplicate in the XTT assay (XTT cell proliferation assay, Canvax, Spain) with HepG2 cells, as described previously (Eur. J. Med. Chem. 253, 115329 (2023)). GraphPad Prism 5 (San Diego, CA) was used to calculate IC50 values.

HepG2 (liver) cells = test: XTT cytotoxicity assay; format: cell-based; details: HepG2 cells
Procedure: as §1, §2

MRSA FPR3757 = test: Neutropenic thigh infection model; format: in vivo, mice; details: MEM 50 mg·kg^−1 ip, 4 20 mg·kg^−1 sc, thighs at 24 h
Procedure: (§3) The neutropenic thigh infection model in mice is commonly used to test efficacy of antibacterial agents. It is a highly standardized and reproducible assay that evaluates attenuation of bacterial load (and not animal survival) as the endpoint. All current clinical antibiotics are evaluated in this model. The direct injection of bacteria into the thighs of mice mimics a human soft-tissue infection. Prior to infection, mice are made neutropenic by injection of cyclophosphamide to cause the temporary depletion of neutrophils, dampening the immune response and making mice more susceptible to infection. […] The potentiation of activity of β-lactam antibiotics by compound 4 observed in vitro, translates to in vivo activity.
(§4) Animals. Outbred 8-week-old female ICR mice for PK and neutropenic thigh infection studies were purchased from Envigo, Indianapolis, IN. The average weight of the mice for the PK study was 30 g (range 26.1 to 33.1 g); mice in the neutropenic thigh infection weights ranged from 24.2 to 37.7 g and were on average 29 g at the initiation of the study. Mice were housed in polycarbonate shoebox cages (for the PK study) or in disposable cages (for the infection studies) with ¼-inch corncob (The Andersons Inc., Maumee, OH) and Alpha-Dri (Shepherd Specialty Papers, Inc., Richland, MI) bedding with a 12-h light/dark cycle at 72° F. The animals were given food (Teklad 2918 irradiated extruded rodent diet) and water ad libitum. The food and water were autoclaved for the infection studies. All procedures were performed in accordance with and approved by the University of Notre Dame Institutional Animal Care and Use Committee.
(§5) Neutropenic thigh infection studies. Mice (n=5 per group, total of 155 mice) were made neutropenic by injection of cyclophosphamide (Sigma-Aldrich, St. Louis, MO) intraperitoneally at 200 mg·kg^−1 (100 μL of a 60 mg·mL^−1 solution) on days −4 and −1. MRSA NRS21 and FPR3757 were grown in Tryptic Soy Agar and diluted to a final concentration of 10^6 CFU·mL^−1 in Brain-heart Infusion. On day 0, 100 μL of bacterial inoculum was injected intramuscularly into each of the right and left thighs. […] MEM was given intraperitoneally at 50 or 100 mg·kg^−1. […] MEM was given intraperitoneally at 50 or 100 mg·kg^−1 at 1 h, 5 h, 9 h, 13 h, 17 h, and 21 h after infection. […] MEM was prepared in 10% DMSO/20% Tween80/70% saline (0.9% NaCl in sterilized water). A vehicle group was included. At 24 h after infection, the mice were euthanized. Both thighs were dissected aseptically, weighed, and homogenized with two volumes of 1×PBS in a Bullet blender (Next Advance, Inc., Averill Park, NY) at 4° C., followed by centrifugation. […] The number of colonies were counted. […]

MRSA NRS21 = test: Neutropenic thigh infection model; format: in vivo, mice; details: single agent (4 20 mg·kg^−1 or OXA 40 mg·kg^−1 sc at 1, 9, 17 h), 24 h
Procedure: as §3, §4, §5

HFH29568 = test: Time-kill assay; format: cell-based, Staphylococcus aureus
Procedure: Time-kill assay. MRSA strains (NRS21, NRS70, NRS382, NRS404, HFH 29568, and HFH 30495) were grown overnight on tryptic soy agar plate. Bacteria were diluted in Muller-Hinton broth containing 2% NaCl to […] CFU·mL^−1. […] For MEM and CPT, cation-adjusted Muller-Hinton broth without 2% NaCl was used. Aliquots were taken at 0, 3, 6, 9, 12, and 24 h and were diluted serially for bacterial counts. The assay was done in triplicate.

Structure (SMILES) | FIC index, 4 with MEM [1] | viability (XTT cytotoxicity assay) [%] | in vitro cytotoxicity (HepG2 (liver) cells) | log reduction compared to vehicle (MRSA FPR3757) [log] | decrease in bacterial counts compared to vehicle-treated mice (MRSA NRS21) | log10 decrease in bacterial growth (HFH29568; MEM by itself, at 6 h) [log10] | activity of MEM by itself (HFH29568; by 24 h)
N#Cc1ccc2nc(SCB(O)O)n(Cc3ccc(C(F)(F)F)cc3C(F)(F)F)c2c1 [Compound 4, (((1-(2,4-bis(trifluoro-methyl)benzyl)-6-cyano-1H-benzo[d]imidazol-2-yl)thio)methyl)boronic acid] | 0.13 | 100 | not toxic to HepG2 cells | 0.06 | did not show a statistically significant decrease in bacterial counts |  | 
C[C@@H](O)[C@H]1C(=O)N2C(C(=O)O)=C(S[C@@H]3CN[C@H](C(=O)N(C)C)C3)[C@H](C)[C@H]12 [MEM, meropenem] | 0.13 |  |  | 1.2 |  | 2 | no activity
Cc1onc(-c2ccccc2)c1C(=O)N[C@@H]1C(=O)N2[C@@H]1SC(C)(C)[C@@H]2C(=O)O [OXA, oxacillin] |  |  |  |  | did not show a statistically significant decrease in bacterial counts |  | 

Reference: patent publication US20260284011A1, “COMPOUNDS FOR RESTORING SUSCEPTIBILITY TO BETA-LACTAM ANTIBIOTICS” (UNIVERSITY OF NOTRE DAME DU LAC, priority 2023, published 2026)
